#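 At the GI50, growth is halved. TGI: concentration producing complete growth inhibition.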
# Columns and labels:
# Assay in all cases: NCI anticancer screen, dose series, 384-well format
# NCI-H226 lung = tested on: NCI-H226 lung
# SNB-75 CNS = tested on: SNB-75 CNS
# MALME-3M melanoma = tested on: MALME-3M melanoma
# KM12 colon = tested on: KM12 colon
# HS 578T breast = tested on: HS 578T breast
# DU-145 prostate = tested on: DU-145 prostate
# OVCAR-8 ovarian = tested on: OVCAR-8 ovarian
# OVCAR-5 ovarian = tested on: OVCAR-5 ovarian
# SF-539 CNS = tested on: SF-539 CNS
# LOX IMVI melanoma = tested on: LOX IMVI melanoma
# SN12C renal = tested on: SN12C renal
# HOP-62 NSCLC = tested on: HOP-62 NSCLC
# TK-10 renal = tested on: TK-10 renal
# UO-31 renal = tested on: UO-31 renal
# A498 renal = tested on: A498 renal
# UACC-257 melanoma = tested on: UACC-257 melanoma
# A549 NSCLC = tested on: A549 NSCLC
# SK-MEL-28 melanoma = tested on: SK-MEL-28 melanoma
# MOLT-4 leukemia = tested on: MOLT-4 leukemia
# NCI-H460 NSCLC = tested on: NCI-H460 NSCLC
# NCI/ADR-RES ovarian = tested on: NCI/ADR-RES ovarian
# HL-60(TB) leukemia = tested on: HL-60(TB) leukemia
# NCI-H23 lung = tested on: NCI-H23 lung
# M14 melanoma = tested on: M14 melanoma
# SK-OV-3 ovarian = tested on: SK-OV-3 ovarian
# SNB-19 CNS = tested on: SNB-19 CNS
# SF-295 CNS = tested on: SF-295 CNS
# COLO 205 colon = tested on: COLO 205 colon
# SK-MEL-5 melanoma = tested on: SK-MEL-5 melanoma
# MDA-MB-468 breast = tested on: MDA-MB-468 breast
# MDA-MB-435 melanoma = tested on: MDA-MB-435 melanoma
# HOP-92 NSCLC = tested on: HOP-92 NSCLC
# RXF 393 renal = tested on: RXF 393 renal
# 786-0 renal = tested on: 786-0 renal
# T-47D breast = tested on: T-47D breast
# BT-549 breast = tested on: BT-549 breast
# SF-268 CNS = tested on: SF-268 CNS
# CAKI-1 renal = tested on: CAKI-1 renal
# CCRF-CEM leukemia = tested on: CCRF-CEM leukemia
# HT29 colon = tested on: HT29 colon
# HCC-2998 colon = tested on: HCC-2998 colon
# RPMI-8226 leukemia = tested on: RPMI-8226 leukemia
# MDA-MB-231 breast = tested on: MDA-MB-231 breast
# IGROV1 ovarian = tested on: IGROV1 ovarian
# EKVX NSCLC = tested on: EKVX NSCLC
# SR leukemia = tested on: SR leukemia
# PC-3 prostate = tested on: PC-3 prostate
# SW-620 colon = tested on: SW-620 colon
# MCF7 breast = tested on: MCF7 breast
# NCI-H522 lung = tested on: NCI-H522 lung
# OVCAR-4 ovarian = tested on: OVCAR-4 ovarian
smiles,measurement,setting,value
N[C@@H]1CCCN(c2c(Br)cnc3[nH]cc(NC(=O)C4CC4)c23)C1,GI50,NCI-H226 lung,7470 nM
same,TGI,NCI-H226 lung,56100 nM
same,GI50,SNB-75 CNS,262 nM
same,TGI,SNB-75 CNS,4580 nM
same,GI50,MALME-3M melanoma,23.4 nM
same,TGI,MALME-3M melanoma,219 nM
same,GI50,KM12 colon,57.4 nM
same,TGI,KM12 colon,> 100000 nM
same,GI50,HS 578T breast,14.3 nM
same,TGI,HS 578T breast,41 nM
same,GI50,DU-145 prostate,172 nM
same,TGI,DU-145 prostate,> 100000 nM
same,GI50,OVCAR-8 ovarian,28.7 nM
same,TGI,OVCAR-8 ovarian,112 nM
same,GI50,OVCAR-5 ovarian,79.4 nM
same,TGI,OVCAR-5 ovarian,433 nM
same,GI50,SF-539 CNS,17.4 nM
same,TGI,SF-539 CNS,35.8 nM
same,GI50,LOX IMVI melanoma,276 nM
same,TGI,LOX IMVI melanoma,1870 nM
same,GI50,SN12C renal,450 nM
same,TGI,SN12C renal,4270 nM
same,GI50,HOP-62 NSCLC,36.5 nM
same,TGI,HOP-62 NSCLC,202 nM
same,GI50,TK-10 renal,24.2 nM
same,TGI,TK-10 renal,64.7 nM
same,GI50,UO-31 renal,52.7 nM
same,TGI,UO-31 renal,> 100000 nM
same,GI50,A498 renal,12 nM
same,TGI,A498 renal,31.2 nM
same,GI50,UACC-257 melanoma,368 nM
same,TGI,UACC-257 melanoma,> 100000 nM
same,GI50,A549 NSCLC,303 nM
same,TGI,A549 NSCLC,> 100000 nM
same,GI50,SK-MEL-28 melanoma,244 nM
same,TGI,SK-MEL-28 melanoma,> 100000 nM
same,GI50,MOLT-4 leukemia,14.1 nM
same,TGI,MOLT-4 leukemia,27.8 nM
same,GI50,NCI-H460 NSCLC,118 nM
same,TGI,NCI-H460 NSCLC,1500 nM
same,GI50,NCI/ADR-RES ovarian,51.7 nM
same,TGI,NCI/ADR-RES ovarian,197 nM
same,GI50,HL-60(TB) leukemia,18 nM
same,TGI,HL-60(TB) leukemia,35.4 nM
same,GI50,NCI-H23 lung,21 nM
same,TGI,NCI-H23 lung,69.5 nM
same,GI50,M14 melanoma,19.1 nM
same,TGI,M14 melanoma,41.7 nM
same,GI50,SK-OV-3 ovarian,34.2 nM
same,TGI,SK-OV-3 ovarian,162 nM
same,GI50,SNB-19 CNS,220 nM
same,TGI,SNB-19 CNS,> 100000 nM
same,GI50,SF-295 CNS,23.5 nM
same,TGI,SF-295 CNS,68.8 nM
same,GI50,COLO 205 colon,269 nM
same,TGI,COLO 205 colon,2690 nM
same,GI50,SK-MEL-5 melanoma,27.7 nM
same,TGI,SK-MEL-5 melanoma,128 nM
same,GI50,MDA-MB-468 breast,20 nM
same,TGI,MDA-MB-468 breast,76 nM
same,GI50,MDA-MB-435 melanoma,30.5 nM
same,TGI,MDA-MB-435 melanoma,124 nM
same,GI50,HOP-92 NSCLC,19.2 nM
same,TGI,HOP-92 NSCLC,57.7 nM
same,GI50,RXF 393 renal,20.7 nM
same,TGI,RXF 393 renal,45.5 nM
same,GI50,786-0 renal,26.8 nM
same,TGI,786-0 renal,78.9 nM
same,GI50,T-47D breast,> 100000 nM
same,TGI,T-47D breast,> 100000 nM
same,GI50,BT-549 breast,18.6 nM
same,TGI,BT-549 breast,42.7 nM
same,GI50,SF-268 CNS,241 nM
same,TGI,SF-268 CNS,> 100000 nM
same,GI50,CAKI-1 renal,361 nM
same,TGI,CAKI-1 renal,14200 nM
same,GI50,CCRF-CEM leukemia,19 nM
same,TGI,CCRF-CEM leukemia,37.5 nM
same,GI50,HT29 colon,197 nM
same,TGI,HT29 colon,524 nM
same,GI50,HCC-2998 colon,15.3 nM
same,TGI,HCC-2998 colon,45.5 nM
same,GI50,RPMI-8226 leukemia,18.7 nM
same,TGI,RPMI-8226 leukemia,97.9 nM
same,GI50,MDA-MB-231 breast,318 nM
same,TGI,MDA-MB-231 breast,18300 nM
same,GI50,IGROV1 ovarian,61.1 nM
same,TGI,IGROV1 ovarian,> 100000 nM
same,GI50,EKVX NSCLC,184 nM
same,TGI,EKVX NSCLC,> 100000 nM
same,GI50,SR leukemia,15.1 nM
same,TGI,SR leukemia,29.4 nM
same,GI50,PC-3 prostate,11800 nM
same,TGI,PC-3 prostate,65600 nM
same,GI50,SW-620 colon,379 nM
same,TGI,SW-620 colon,36400 nM
same,GI50,MCF7 breast,25.1 nM
same,TGI,MCF7 breast,> 100000 nM
same,GI50,NCI-H522 lung,1510 nM
same,TGI,NCI-H522 lung,9610 nM
same,GI50,OVCAR-4 ovarian,17.7 nM
same,TGI,OVCAR-4 ovarian,44.8 nM

# Reference: PubChem BioAssay (NCI)
